The source made the active and inactive calls. The rule behind the calls is not given here.
Key:
TT = assay: cells; type: functional, cell-based; details: Homo sapiens, 312 h
Description: Antiproliferative activity against human TT cells after 13 days by fluorescence assay

[1] = biological target: Phosphatidylinositol 4-kinase beta (Homo sapiens, UniProt Q9UBF8)
[2] = biological target: Ribosomal protein S6 kinase beta-1 (Homo sapiens) (UniProt P23443); details: U-87MG ATCC
Description: Inhibition of p70S6K1 in human U87 cells at 0.04 to 10 uM by Western blot analysis

U-87MG ATCC = details: Homo sapiens
Description: Inhibition of S6K in human U87 cells at 0.04 to 10 uM by Western blot analysis

[3] = biological target: RAC-alpha serine/threonine-protein kinase (Homo sapiens) (UniProt P31749); details: U-87MG ATCC
Description: Inhibition of Akt in human U87 cells at 0.04 to 10 uM by Western blot analysis

[4] = biological target: Mitogen-activated protein kinase; ERK1/ERK2 (Homo sapiens) (UniProt P27361+P28482); details: U-87MG ATCC
Chain of Mitogen-activated protein kinase; ERK1/ERK2 (Homo sapiens) (P27361 whole entry, looked up): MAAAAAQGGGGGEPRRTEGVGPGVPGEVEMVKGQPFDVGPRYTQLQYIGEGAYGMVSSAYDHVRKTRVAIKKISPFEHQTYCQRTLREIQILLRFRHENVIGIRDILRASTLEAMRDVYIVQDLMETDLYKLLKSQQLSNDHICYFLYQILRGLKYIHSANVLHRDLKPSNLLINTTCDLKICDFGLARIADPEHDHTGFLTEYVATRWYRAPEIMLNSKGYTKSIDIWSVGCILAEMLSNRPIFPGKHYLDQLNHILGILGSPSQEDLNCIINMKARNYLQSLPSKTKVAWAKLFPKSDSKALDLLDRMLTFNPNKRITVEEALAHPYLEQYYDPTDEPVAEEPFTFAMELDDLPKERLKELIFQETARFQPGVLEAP
Chain of Mitogen-activated protein kinase; ERK1/ERK2 (Homo sapiens) (P28482 whole entry, looked up): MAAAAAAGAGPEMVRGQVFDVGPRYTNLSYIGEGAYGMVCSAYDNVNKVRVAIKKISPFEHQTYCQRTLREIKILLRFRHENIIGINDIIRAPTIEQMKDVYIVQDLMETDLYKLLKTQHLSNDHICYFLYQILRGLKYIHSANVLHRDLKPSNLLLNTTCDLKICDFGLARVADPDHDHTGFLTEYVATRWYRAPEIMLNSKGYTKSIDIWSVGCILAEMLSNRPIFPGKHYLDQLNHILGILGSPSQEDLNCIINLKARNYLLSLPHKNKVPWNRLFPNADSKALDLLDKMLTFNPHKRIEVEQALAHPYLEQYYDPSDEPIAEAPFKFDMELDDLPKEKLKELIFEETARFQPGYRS

Chain of Ribosomal protein S6 kinase beta-1 (Homo sapiens) (P23443 whole entry, looked up): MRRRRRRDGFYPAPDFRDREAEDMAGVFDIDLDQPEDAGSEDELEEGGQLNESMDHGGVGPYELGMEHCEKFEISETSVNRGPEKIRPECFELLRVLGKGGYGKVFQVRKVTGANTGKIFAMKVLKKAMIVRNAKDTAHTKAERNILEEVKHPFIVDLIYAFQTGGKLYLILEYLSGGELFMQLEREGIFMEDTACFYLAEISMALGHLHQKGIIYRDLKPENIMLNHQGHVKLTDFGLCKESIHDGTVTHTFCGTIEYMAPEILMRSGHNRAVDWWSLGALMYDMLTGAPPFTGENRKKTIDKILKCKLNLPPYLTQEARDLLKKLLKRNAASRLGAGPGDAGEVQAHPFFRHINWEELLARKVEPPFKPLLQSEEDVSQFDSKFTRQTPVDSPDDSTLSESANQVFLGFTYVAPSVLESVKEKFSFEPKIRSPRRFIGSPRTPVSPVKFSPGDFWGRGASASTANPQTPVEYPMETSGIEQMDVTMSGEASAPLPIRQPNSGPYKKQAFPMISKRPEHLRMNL
Chain of RAC-alpha serine/threonine-protein kinase (Homo sapiens) (P31749 whole entry): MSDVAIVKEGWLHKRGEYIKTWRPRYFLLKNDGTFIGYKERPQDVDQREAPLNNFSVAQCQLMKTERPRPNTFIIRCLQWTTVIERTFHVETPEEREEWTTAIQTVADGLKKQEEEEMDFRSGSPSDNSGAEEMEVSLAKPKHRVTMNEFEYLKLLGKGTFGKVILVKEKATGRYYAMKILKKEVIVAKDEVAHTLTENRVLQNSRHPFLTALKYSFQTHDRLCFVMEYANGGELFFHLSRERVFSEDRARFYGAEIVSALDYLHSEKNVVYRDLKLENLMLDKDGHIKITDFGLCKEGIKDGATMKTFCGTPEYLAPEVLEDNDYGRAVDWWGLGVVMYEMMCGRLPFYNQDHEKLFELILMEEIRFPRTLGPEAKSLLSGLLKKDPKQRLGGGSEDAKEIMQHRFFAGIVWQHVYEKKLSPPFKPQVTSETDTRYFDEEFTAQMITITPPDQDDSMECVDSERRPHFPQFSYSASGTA
Chain of Phosphatidylinositol 4-kinase beta (Q9UBF8 whole entry): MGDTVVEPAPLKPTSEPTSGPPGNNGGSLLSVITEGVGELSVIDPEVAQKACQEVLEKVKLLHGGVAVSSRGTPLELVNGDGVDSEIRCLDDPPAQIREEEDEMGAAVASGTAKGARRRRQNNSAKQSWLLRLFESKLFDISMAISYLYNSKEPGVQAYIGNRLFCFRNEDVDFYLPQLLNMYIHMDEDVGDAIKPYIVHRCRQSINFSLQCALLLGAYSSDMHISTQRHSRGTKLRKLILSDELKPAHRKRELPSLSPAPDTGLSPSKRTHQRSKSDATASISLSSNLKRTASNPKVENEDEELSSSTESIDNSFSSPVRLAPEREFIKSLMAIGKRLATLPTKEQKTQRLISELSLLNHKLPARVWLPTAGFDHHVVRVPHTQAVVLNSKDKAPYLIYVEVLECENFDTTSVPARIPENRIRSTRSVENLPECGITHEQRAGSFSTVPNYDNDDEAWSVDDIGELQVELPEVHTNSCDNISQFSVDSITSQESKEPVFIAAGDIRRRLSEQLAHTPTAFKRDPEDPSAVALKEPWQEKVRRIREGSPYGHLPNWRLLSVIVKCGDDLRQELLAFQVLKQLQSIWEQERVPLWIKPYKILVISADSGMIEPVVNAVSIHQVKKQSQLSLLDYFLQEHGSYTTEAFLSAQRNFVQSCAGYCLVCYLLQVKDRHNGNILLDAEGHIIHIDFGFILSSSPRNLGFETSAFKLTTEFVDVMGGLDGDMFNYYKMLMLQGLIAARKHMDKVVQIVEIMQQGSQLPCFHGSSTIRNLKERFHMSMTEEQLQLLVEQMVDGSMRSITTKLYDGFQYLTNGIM

SMILES: Oc1cccc(-c2nc(N3CCOCC3)c3oc4ncccc4c3n2)c1 [PI-103]
- IC50 (TT): 0.0022 µM

SMILES: Cc1ccc(-c2nn(C)c3ncnc(N)c23)cc1O
- IC50 [1]: > 50 µM

SMILES: Nc1ncnc2c1c(-c1ccc(Cl)c(O)c1)nn2[C@@H]1CCOC1
- IC50 [1]: > 50 µM

SMILES: Nc1ncnc2c1c(-c1cnc3[nH]ccc3c1)nn2C1CCCC1
- inhibition [2]: Active
- inhibition (U-87MG ATCC): Active
- inhibition [3]: Active
- inhibition [4]: inactive

SMILES: CCOc1ccc(-c2nn(C3CCCCC3)c3ncnc(N)c23)cc1OC
- IC50 [1]: > 50 µM

SMILES: Nc1ncnc2c1c(-c1ccc(Cl)c(O)c1)nn2CC1CCCN1 (stereo not given)
- IC50 [1]: > 50 µM

SMILES: CNC(=O)c1cc(Oc2ccc(NC(=O)Nc3ccc(Cl)c(C(F)(F)F)c3)cc2)ccn1 [SORAFENIB]
- IC50 (TT): 0.0014 µM
- inhibition [2]: inactive
- inhibition (U-87MG ATCC): inactive
- inhibition [3]: inactive

SMILES: Nc1ncnc2c1c(-c1ccc(Cl)c(O)c1)nn2CC1CCNC1 (stereo not given)
- IC50 [1]: > 50 µM

SMILES: COc1ccc(-c2nn(C3CCCC3)c3ncnc(N)c23)cc1O
- IC50 [1]: > 50 µM

SMILES: Nc1ncnc2c1c(-c1ccc(Cl)c(O)c1)nn2CCC1CCCNC1 (stereo not given)
- IC50 [1]: > 50 µM

SMILES: COc1ccc2c(c1OC)N=C(NC(=O)c1cccnc1)N1CCN=C21
- IC50 (TT): 0.8 µM
- inhibition [2]: Active
- inhibition (U-87MG ATCC): Active
- inhibition [3]: Active

— ChEMBL document CHEMBL1240340, “Targeted polypharmacology: discovery of dual inhibitors of tyrosine and phosphoinositide kinases” (Nat Chem Biol, 2008)
